Patent publication US7863476B1, “Multifunctional anionic surfactants” (Oil Chem Technologies, priority 2009, dated 2011)

How the values were obtained:
Type in all cases: physicochemical
[1] = Interfacial tension (IFT) by spinning drop interfacial tensiometer; settings: 0.10 wt % surfactant, 95° C., spinning 1 hour; for IFT, BRINE 1: Brine 1: NaCl 3.0%, CaCl2-2H2O 1.0%, MgCl2-6H2O 1.0%; for IFT, BRINE 2: Brine 2: NaCl 1.0%; for IFT, BRINE 3: Brine 3: NaCl 5.0%; for IFT, BRINE 4: Brine 4: NaCl 10%; for IFT, BRINE 5: Brine 5: NaCl 20%
Description: (§1) In all cases the surfactant formulation consisted of 30% by weight surfactant, 25% by weight ethylene glycol monobutyl ether (co-surfactant/solvent), and 45% by weight water. Also in all cases except where noted the surfactant formulation was added to the injection brine at a concentration of 0.10 weight percent. These examples use surfactants containing only ethylene oxide in the alcohol ether carboxylate although products containing propylene oxide and ethylene oxide give good results in certain applications.
(§2) Table II is the brine compositions that were used for the IFT testing to show the effect of total dissolved solids and divalent ion concentration on the IFT obtained using various surfactants.
All IFTs were obtained using a University of Texas Model 500 spinning drop interfacial tensiometer after spinning at 95° C. for 1 hour.

[2] = Brine solubilities of surfactant concentrates; settings: 5.0% by weight surfactant concentrate, 30° C.; for Brine solubility, BRINE 1: Brine 1: NaCl 3.0%, CaCl2-2H2O 1.0%, MgCl2-6H2O 1.0%; for Brine solubility, BRINE 2: Brine 2: NaCl 1.0%; for Brine solubility, BRINE 3: Brine 3: NaCl 5.0%; for Brine solubility, BRINE 4: Brine 4: NaCl 10%; for Brine solubility, BRINE 5: Brine 5: NaCl 20%
Description: as §1, §2
Table III compares the solubilities obtained with 5.0% by weight of various surfactant concentrates in the 5 brines at 30° C.

Static adsorption test = experiment: Static adsorption test
Source text: Table VII compares the adsorption of the composition of this invention surfactant B with a 1:1 molar mixture of surfactant D and surfactant E to show the effectiveness of having both the sulfonate and ether carboxylate on one molecule. 0.2 wt % surfactant D and 0.2 wt % surfactant E alone were also included to correct for the amount of each of these surfactants adsorbed. All tests were done using 0.20 wt % total surfactant in Brine 2. The static adsorption was run by mixing 50.0 grams of surfactant solution with 10.0 grams of 200 mesh beach sand on a wrist action shaker for 16 hours and then determining the amount of surfactant remaining compared to the original amount added.

[3] = 0.20 wt % total surfactant in Brine 2, 16 hours

Substance | IFT, BRINE 1 [1] [mN/m] | IFT, BRINE 2 [1] [mN/m] | IFT, BRINE 3 [1] [mN/m] | IFT, BRINE 4 [1] [mN/m] | IFT, BRINE 5 [1] [mN/m] | Brine solubility, BRINE 1 [2] | Brine solubility, BRINE 2 [2] | Brine solubility, BRINE 3 [2] | Brine solubility, BRINE 4 [2] | Brine solubility, BRINE 5 [2] | % adsorbed (Static adsorption test; [3]) [%] | amount adsorbed in mg surfactant/gram sand (Static adsorption test; [3]) [mg/g] | Amount remaining (Static adsorption test; of 0.100 g original wt, 0.20 wt % total surfactant in Brine 2, 50.0 g solution with 10.0 g sand, 16 hours) | Adsorbed (Static adsorption test; of 0.100 g original wt, 0.20 wt % total surfactant in Brine 2, 16 hours)
Sodium salt of carboxylated oleyl alcohol with 2 moles of EO. [Surfactant C] | 0.769 | 0.070 | 0.090 | 0.122 | 0.256 | dis- | soluble | soluble | soluble | dis- | – | – | – | –
Sodium salt of carboxylated oleyl alcohol with 9 moles of EO. [Surfactant D] | 0.066 | 0.031 | 0.022 | 0.020 | 0.020 | soluble | soluble | soluble | soluble | soluble | 78 | 7.8 | 0.022 | 0.078
